Measurements taken from patent US20210171554A1, “BENZOTHIOPHENE ESTROGEN RECEPTOR MODULATORS TO TREAT MEDICAL DISORDERS” (G1 Therapeutics, Inc., priority 2018, published 2021).

What was measured:
estrogen receptor = molecular target: T1, estrogen receptor (Homo sapiens, UniProt P03372); assay: Estrogen Receptor (ER) Degradation Assay (In-Cell Western, MCF7 cells); type: cell-based; design: key to % Estrogen Receptor Remaining: **** denotes 0-0% Estrogen Receptor remaining; *** denotes 417% Estrogen Receptor remaining; ** denotes 719% Estrogen Receptor remaining; * denotes 9110% Estrogen Receptor remaining; settings: for DC50: 24 hours incubation, In-Cell Western, read-out: Estrogen Receptor Degradation Assay IC50; for % Estrogen Receptor Remaining: vehicle set to 100% ER
T1 construct: MCF7 cells, which are estrogen receptor positive; endogenous in cells; host or cells: MCF7
T1 sequence (P03372 1-595): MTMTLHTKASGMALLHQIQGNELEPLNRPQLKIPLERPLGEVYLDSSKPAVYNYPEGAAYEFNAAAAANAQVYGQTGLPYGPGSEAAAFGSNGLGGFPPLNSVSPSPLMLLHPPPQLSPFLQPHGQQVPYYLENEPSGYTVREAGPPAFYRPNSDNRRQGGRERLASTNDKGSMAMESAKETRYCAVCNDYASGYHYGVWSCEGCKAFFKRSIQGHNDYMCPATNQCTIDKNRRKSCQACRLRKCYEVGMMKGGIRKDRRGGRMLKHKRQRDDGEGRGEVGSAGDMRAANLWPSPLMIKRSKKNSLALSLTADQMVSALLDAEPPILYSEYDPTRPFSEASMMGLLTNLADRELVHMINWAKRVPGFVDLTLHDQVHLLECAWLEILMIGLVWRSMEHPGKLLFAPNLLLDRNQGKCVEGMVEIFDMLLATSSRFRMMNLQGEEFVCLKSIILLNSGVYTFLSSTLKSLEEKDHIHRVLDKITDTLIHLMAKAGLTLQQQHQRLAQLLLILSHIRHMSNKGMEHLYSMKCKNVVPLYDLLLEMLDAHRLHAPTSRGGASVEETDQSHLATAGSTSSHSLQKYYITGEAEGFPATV
Description: A screening strategy was implemented utilizing an In-Cell Western assay to measure their ability to degrade the estrogen receptor in vitro. MCF7 cells, which are estrogen receptor positive, were plated at a cell density of […] into black walled clear bottom 96-well plates. Cells were incubated in phenol red free Dulbecco's Modified Eagle Media (DMEM) supplemented with 8% charcoal-stripped fetal bovine calf serum for 24 hours in a humidified 37° C. incubator. Concentrated stock compounds were diluted to 10× in complete media. Compounds were added to the plated cells in a dose-dependent manner ranging from 1E-12 to 1E-05 M and incubated for an additional 24 hours at 37° C. Culture medium was removed from the culture plates by gentle inversion. Cells were fixed in 4% paraformaldehyde in 1×phosphate buffered saline-calcium magnesium free (PBS-CMF) for 15 minutes at room temperature, washed 3 times for 5 minutes each in 1×PBS-CMF. Cells were permeabilized in immunofluorescence (IF) blocking buffer (Cell Signaling #12411) containing 0.3% Triton X100. Cells were washed 3 times for 5 minutes each in 1×PBS-CMF and incubated in estrogen receptor α (D6R2W) rabbit primary antibody (Cell Signaling #13258) diluted 1:300 in IF antibody dilution buffer (Cell Signaling #12378). Cells were washed 3 times for 5 minutes each in 1×PBS-CMF and stained with goat anti-rabbit (Biotium #CF770) secondary antibody diluted 1:2000 in IF antibody dilution buffer and normalizing stain CellTag 700 diluted 1:500 (Licor #926-41090). ER protein expression was assessed by the Licor Odyssey CLx imaging system using Image Studio v5.2. Data is processed utilizing GraphPad Prism 7 by subtracting background from the vehicle and setting the vehicle to 100% ER activity, followed by comparing treated samples to vehicle.
(§1) In the below table for the Estrogen Receptor Degradation Assay and the Human ERα Reporter Assay: […]

[1] = molecular target: T2, human estrogen receptor (ERα) (Homo sapiens, UniProt P03372); assay: Human ERα Reporter Assay (Indigo Biosciences, antagonist mode); type: cell-based; settings: antagonist activity, reporter cells with 17β-estradiol 8E-10 M, 24 hours
T2 construct: purchased Indigo Biosciences #1B00401
T2 sequence (P03372 1-595): T1 sequence (P03372 1-595)
Description: All reagents used in this assay was supplied in the Human ERα Reporter Assay by Indigo Biosciences #1B00401. In an effort to screen selective estrogen receptor degraders (SERDs), the Human ERα Reporter Assay, supplied by Indigo Biosciences, was utilized to quantify antagonist functional activity against the human estrogen receptor. Reporter cells were thawed at 37° C. and added to pre-warmed to 37° C. cell recovery medium (CRM). Stock concentration of 17β-estradiol was serially diluted in CRM. Diluted 17β-estradiol was added to CRM containing reporter cells resulting in a working concentration of 1.6 nM (2×). Cells plus 17β-estradiol were dispensed in a kit-supplied white walled 96-well plate. Concentrated stocks of test compounds were diluted to 2× working concentrations in cell screening medium (CSM). 2× concentrated compounds were added to the plated cells in a dose-dependent manner resulting in a final concentration range of 1E-11 to 1E-5 M and a final […] concentration of 8E-10 M. Assay plates were incubated for 24 hours in a humidified 37° C. incubator. Culture medium was removed from the assay plates by inversion. Detection substrate and buffer was warmed to room temperature, mixed thoroughly, and immediately added to the assay plates. Assay plates were incubated for 15 minutes at room temperature protected from light. Luminescence was measured in a Synergy HTX luminescence plate reader. Data is processed utilizing GraphPad Prism 7 by graphing the relative light units measured at each compound concentration.
as §1

## Cc1cc(F)cc(C)c1C(=O)c1sc2cc(O)ccc2c1-c1ccc(O[C@H]2CCN(CCCF)C2)cc1 [Compound 108, (S)-(4-fluoro-2,6-dimethylphenyl)(3-(4-((1-(3-fluoropropyl)pyrrolidin-3-yl)oxy)phenyl)-6-hydroxybenzo[b]thiophen-2-yl)methanone]
Estrogen receptor
  DC50: < 1000 nM
  % Estrogen Receptor Remaining: **
[1]
  IC50: < 50000 nM

## Cc1cc(F)cc(C)c1C(=O)c1sc2cc(O)ccc2c1Oc1ccc(O[C@@H]2CCN(CCCF)C2)cc1 [Compound 102, (R)-(4-fluoro-2,6-dimethylphenyl)(3-(4-((1-(3-fluoropropyl)pyrrolidin-3-yl)oxy)phenoxy)-6-hydroxybenzo[b]thiophen-2-yl)methanone]
Estrogen receptor
  DC50: < 1000 nM
  % Estrogen Receptor Remaining: **** (**** denotes 0-0% Estrogen Receptor remaining)
[1]
  IC50: < 1000 nM

## Cc1cc(F)cc(C)c1C(=O)c1sc2cc(O)ccc2c1Oc1ccc(OCCN2CCC(CCCF)C2)cc1 (stereo not shown) [Compound 115, (4-fluoro-2,6-dimethylphenyl)(3-(4-(2-(3-(3-fluoropropyl)pyrrolidin-1-yl)ethoxy)phenoxy)-6-hydroxybenzo[b]thiophen-2-yl)methanone]
Estrogen receptor
  DC50: < 1000 nM
  % Estrogen Receptor Remaining: **

## Cc1cc(F)cc(C)c1C(=O)c1sc2cc(O)ccc2c1-c1ccc(O[C@@H]2CCN(CCCF)C2)cc1 [Compound 110, (R)-(4-fluoro-2,6-dimethylphenyl)(3-(4-((1-(3-fluoropropyl)pyrrolidin-3-yl)oxy)phenyl)-6-hydroxybenzo[b]thiophen-2-yl)methanone]
Estrogen receptor
  DC50: < 1000 nM
  % Estrogen Receptor Remaining: ***
[1]
  IC50: < 1000 nM

## Cc1cc(F)cc(C)c1C(=O)c1sc2cc(O)c(F)cc2c1Oc1ccc(OC2CCN(CCCF)C2)cc1 (stereo in doubt) [Compound 113, (R)-(4-fluoro-2,6-dimethylphenyl)(5-fluoro-3-(4-((1-(3-fluoropropyl)pyrrolidin-3-yl)oxy)phenoxy)-6-hydroxybenzo[b]thiophen-2-yl)methanone]
Estrogen receptor
  DC50: < 1000 nM
  % Estrogen Receptor Remaining: **** (**** denotes 0-0% Estrogen Receptor remaining)
[1]
  IC50: < 1000 nM

## Cc1cc(F)cc(C)c1C(=O)c1sc2cc(O)ccc2c1-c1ccc(OCCN2CCCC2)cc1 [Compound 109, (4-fluoro-2,6-dimethylphenyl)(6-hydroxy-3-(4-(2-(pyrrolidin-1-yl)ethoxy)phenyl)benzo[b]thiophen-2-yl)methanone]
Estrogen receptor
  DC50: < 1000 nM
  % Estrogen Receptor Remaining: ***
[1]
  IC50: < 1000 nM

## CCNCCc1ccc(Oc2c(C(=O)c3c(C)cc(F)cc3C)sc3cc(C(=O)O)ccc23)cc1 [Compound 106, 3-(4-(2-(ethylamino)ethyl)phenoxy)-2-(4-fluoro-2,6-dimethylbenzoyl)benzo[b]thiophene-6-carboxylic acid]
Estrogen receptor
  DC50: < 1000 nM
  % Estrogen Receptor Remaining: ***
[1]
  IC50: < 1000 nM

## Cc1cc(F)cc(C)c1C(=O)c1sc2cc(S(N)(=O)=O)ccc2c1Oc1ccc(O[C@H]2CCN(CCCF)C2)cc1 [Compound 116, (S)-2-(4-fluoro-2,6-dimethylbenzoyl)-3-(4-((1-(3-fluoropropyl)pyrrolidin-3-yl)oxy)phenoxy)benzo[b]thiophene-6-sulfonamide]
Estrogen receptor
  DC50: < 1000 nM
  % Estrogen Receptor Remaining: **** (**** denotes 0-0% Estrogen Receptor remaining)

## Cc1cc(F)cc(C)c1C(=O)c1sc2c(F)c(O)ccc2c1Oc1ccc(OC2CCN(CCCF)C2)cc1 (stereo in doubt) [Compound 112, (R)-(4-fluoro-2,6-dimethylphenyl)(7-fluoro-3-(4-((1-(3-fluoropropyl)pyrrolidin-3-yl)oxy)phenoxy)-6-hydroxybenzo[b]thiophen-2-yl)methanone]
Estrogen receptor
  DC50: < 1000 nM
  % Estrogen Receptor Remaining: **** (**** denotes 0-0% Estrogen Receptor remaining)
[1]
  IC50: < 1000 nM

## Cc1cc(F)cc(C)c1C(=O)c1sc2cc(O)ccc2c1Oc1ccc(O[C@H]2CCN(CCCF)C2)cc1 [Compound 100, (S)-(4-fluoro-2,6-dimethylphenyl)(3-(4-((1-(3-fluoropropyl)pyrrolidin-3-yl)oxy)phenoxy)-6-hydroxybenzo[b]thiophen-2-yl)methanone]
Estrogen receptor
  DC50: < 1000 nM
  % Estrogen Receptor Remaining: **** (**** denotes 0-0% Estrogen Receptor remaining)
[1]
  IC50: < 1000 nM

## Cc1cc(F)cc(C)c1C(=O)c1sc2cc(O)ccc2c1Oc1ccc(O[C@H]2CCNC2)cc1 [Compound 101, (S)-(4-fluoro-2,6-dimethylphenyl)(6-hydroxy-3-(4-(pyrrolidin-3-yloxy)phenoxy)benzo[b]thiophen-2-yl)methanone]
Estrogen receptor
  DC50: < 1000 nM
  % Estrogen Receptor Remaining: ***
[1]
  IC50: < 1000 nM
